This note sets out measurements from ChEMBL document CHEMBL1122602, “2-Acetylpyridine thiosemicarbazones. 8. Derivatives of 1-acetylisoquinoline as potential antimalarial agents” (1984).

SMILES strings stand for the structures.

Common to all, as to type: functional
The subject of assay [1] is Mus musculus. Nature of the assay: Antimalarial activity was assessed against Plasmodium berghei in mice (Mus musculus) at 160 mg/kg dosage of the compound; Toxic.
The test system of assay [2] is Mus musculus. Nature of the assay: Antimalarial activity was assessed against Plasmodium berghei in mice (Mus musculus) at 640 mg/kg dosage of the compound; Toxic.
Assay [3] deals with Mus musculus. Nature of the assay: Antimalarial activity was assessed against Plasmodium berghei in mice (Mus musculus) at 320 mg/kg dosage of the compound; Toxic.
Assay [4] concerns Mus musculus. Nature of the assay: Antimalarial activity was assessed against Plasmodium berghei in mice (Mus musculus) at 640 mg/kg dosage of the compound: Toxic.
Assay [5] relates to Mus musculus. Kind of assay: Antimalarial activity was assessed against Plasmodium berghei in mice (Mus musculus). at 320 mg/kg dosage of the compound; Toxic.

Take `C/C(=N\N=C(/S)N(C)C1CCCCC1)c1nccc2ccccc12`: the toxic deaths in the assay on Mus musculus [1] turned out to be 1 count; with Mus musculus [2] it was 5 count.
Turning to `C/C(=N\N=C(/S)N1CC(C)OC(C)C1)c1nccc2ccccc12` (stereo unspecified), the toxic deaths in the assay with Mus musculus [3] was found to be 1 count; with Mus musculus [2], 2 count.
As to `C/C(=N\N=C(/S)N1CCCCCC1)c1nccc2ccccc12`, the toxic deaths with Mus musculus [2] was 4 count.
On to `C/C(=N\N=C(/S)N(C)C)c1nccc2ccccc12`, for which the toxic deaths in the assay with Mus musculus [3] and in the assay with Mus musculus [2] was 5 count in each case.
Consider `CC(N/N=C(\S)N1CCN(c2ccccn2)CC1)c1nccc2ccccc12` (stereo unspecified), for which the toxic deaths in the assay with Mus musculus [3] worked out at 2 count; in the assay on Mus musculus [2] it was 1 count.
As for `CC(N/N=C(\S)N(C)C)c1nccc2ccccc12` (stereo unspecified), the toxic deaths with Mus musculus [1] came out at 1 count; in the assay on Mus musculus [2], 5 count.
On to `CC1CCN(/C(S)=N/NC(C)c2nccc3ccccc23)CC1` (stereo unspecified), for which the toxic deaths with Mus musculus [3] and with Mus musculus [2] was 5 count in each case.
As for `CC(N/N=C(\S)N1CCCCCC1)c1nccc2ccccc12` (stereo unspecified), the values for the toxic deaths with Mus musculus [3] and in the assay with Mus musculus [2] were 3 count and 2 count, respectively.
Take `CC(N/N=C(\S)N(C)C1CCCCC1)c1nccc2ccccc12` (stereo unspecified): the toxic deaths was found to be 2 count in the assay with Mus musculus [1], 3 count in the assay on Mus musculus [3] and 3 count with Mus musculus [2].
`CC(N/N=C(\S)N1CCCC1)c1nccc2ccccc12` (stereo unspecified): the toxic deaths is 2 count in the assay with Mus musculus [3] and 4 count in the assay on Mus musculus [2].
With `C/C(=N\N=C(/S)N1CCC(C)CC1)c1nccc2ccccc12`, the toxic deaths in the assay on Mus musculus [1] was 1 count; with Mus musculus [3], 5 count; in the assay on Mus musculus [4], 5 count.
In turn, `C/C(=N\N=C(/S)N1CCCC1)c1nccc2ccccc12` yielded a toxic deaths in the assay on Mus musculus [2] of 5 count.
Take `CC1CN(/C(S)=N/NC(C)c2nccc3ccccc23)CC(C)O1` (stereo unspecified): the toxic deaths in the assay on Mus musculus [2] and with Mus musculus [5] was 1 count throughout.
